Source: patent publication US9085605B2, “Chemical synthesis and anti-tumor and anti-metastatic effects of dual functional conjugate” (Shenzhen Salubris Pharmaceuticals Co., Ltd., priority 2010, dated 2015)

What was measured:
[1] = system: human breast cancer line MDA-MB-231; assay: Tumor growth inhibition in nude mice xenograft model, MDA-MB-231
Method: • 1. […] Drug administration dose were set as: 10 mg/kg, 15 mg/kg, and 20 mk/kg, drug administration volume was 0.2 mL/20 g. • 2. […] MDA [Peptide (P) 0.54 mg/mL (0.001M), Example 10], a colorless and clear liquid, was prepared by the commission, can be directly used after the repackaging in a sterile condition, stored at 4° C. […] Certificate NO. […] SYSK (BeiJing) 2004-0001. Experiment Methods:
The mice were divided into groups and administrated drug after 11 days.
The mice were divided into eight groups, each group had 6-8 mice. The groups contained Negative control. […] After grouping, all mice were administrated with drug by intraperitoneal injection once a day depends on their body weight.
Other groups were administered with drugs for 24 times successively. The experiment was completed 24 h after the last administration.
The mice were sacrificed, and tumors were isolated and their weight was measured, and the inhibition rate of tumor growth by drugs were calculated. […] Calculation methods and formula were omitted.

[2] = system: 60 human tumor cell lines; assay: NCI screening of antitumor activity in vitro in 60 human tumor cell lines; type: cell-based
Text: The experimental results refer to FIGS. 1-12.

[3] = system: 10 human tumor cell lines; assay: Antitumor activity screening in 10 human tumor cell lines; type: cell-based
Text: In the invention, the compounds, MTC-301, MTC-302, MTC-303, MTC-304, MTC-305, MTC-306, MTC-307, MDC-308, MDC-403, MDC-404, MDC-405. MDC-406, MDC-407 and MDC-408 were screened their antitumor activity in 10 human tumor cell lines. […] The experimental results refer to FIGS. 13-16.

SMILES	50% growth inhibition (GI50) activity [3]	further results
CC(NC(=O)/C=C/c1ccc(Cl)cc1)C(=O)N[C@@H](CCC(=O)NC(CCCCN)C(N)=O)C(N)=O (some centres unmarked) [MDA]	–	Tumor growth rate (in words) ([1]; MDA 0.54 mg/mL × 24): slower than the tumor growth rate of the negative control group; RTV ([1]; MDA 0.54 mg/mL × 24, i.p.): 15.06 ± 5.292; T/C ([1]; MDA 0.54 mg/mL × 24, i.p.): 83.5%; TGI ([1]; MDA 0.54 mg/mL × 24, i.p.): 30.3%; Tumor volume Beginning ([1]; MDA 0.54 mg/mL × 24, i.p.): 141 ± 61.1 mm^3; Tumor volume End ([1]; MDA 0.54 mg/mL × 24, i.p.): 1898 ± 775.4 mm^3; Tumor weight ([1]; MDA 0.54 mg/mL × 24, i.p.): 1.98 ± 0.744 g
CC(=O)O[C@@]12CO[C@@H]1C[C@H](O)[C@@]1(C)C(=O)[C@H](O)C3=C(C)[C@@H](OC(=O)[C@H](OC(=O)CCC(=O)NCCCCC(NC(=O)CC[C@H](NC(=O)C(C)NC(=O)/C=C/c4ccc(Cl)cc4)C(N)=O)C(N)=O)[C@@H](NC(=O)OC(C)(C)C)c4ccccc4)C[C@@](O)([C@@H](OC(=O)c4ccccc4)[C@H]21)C3(C)C (some centres unmarked) [MDC-400]	–	50% growth inhibition (GI50) activity [2]: in the same magnitude range as paclitaxel
CC(=O)O[C@@]12CO[C@@H]1C[C@H](O)[C@@]1(C)C(=O)[C@H](O)C3=C(C)[C@@H](OC(=O)[C@H](OC(=O)CCC(=O)NCCCCC(NC(=O)CC[C@H](NC(=O)C(C)NC(=O)/C=C/c4ccc(F)cc4F)C(N)=O)C(N)=O)[C@@H](NC(=O)OC(C)(C)C)c4ccccc4)C[C@@](O)([C@@H](OC(=O)c4ccccc4)[C@H]21)C3(C)C (some centres unmarked) [MDC-403]	in the same magnitude range as paclitaxel or docetaxel	–
CC(=O)O[C@@]12CO[C@@H]1C[C@H](O)[C@@]1(C)C(=O)[C@H](O)C3=C(C)[C@@H](OC(=O)[C@H](OC(=O)CCC(=O)NCCCCC(NC(=O)CC[C@H](NC(=O)C(C)NC(=O)/C=C/c4ccc(Cl)cc4F)C(N)=O)C(N)=O)[C@@H](NC(=O)OC(C)(C)C)c4ccccc4)C[C@@](O)([C@@H](OC(=O)c4ccccc4)[C@H]21)C3(C)C (some centres unmarked) [MDC-404]	in the same magnitude range as paclitaxel or docetaxel	–
CC(=O)O[C@@]12CO[C@@H]1C[C@H](O)[C@@]1(C)C(=O)[C@H](O)C3=C(C)[C@@H](OC(=O)[C@H](OC(=O)CCC(=O)NCCCCC(NC(=O)CC[C@H](NC(=O)C(C)NC(=O)/C=C/c4ccc(F)cc4Cl)C(N)=O)C(N)=O)[C@@H](NC(=O)OC(C)(C)C)c4ccccc4)C[C@@](O)([C@@H](OC(=O)c4ccccc4)[C@H]21)C3(C)C (some centres unmarked) [MDC-405]	in the same magnitude range as paclitaxel or docetaxel	–
CC(=O)O[C@@]12CO[C@@H]1C[C@H](O)[C@@]1(C)C(=O)[C@H](O)C3=C(C)[C@@H](OC(=O)[C@H](OC(=O)CCC(=O)NCCCCC(NC(=O)CC[C@H](NC(=O)C(C)NC(=O)/C=C/c4ccc(F)cc4)C(N)=O)C(N)=O)[C@@H](NC(=O)OC(C)(C)C)c4ccccc4)C[C@@](O)([C@@H](OC(=O)c4ccccc4)[C@H]21)C3(C)C (some centres unmarked) [MDC-406]	in the same magnitude range as paclitaxel or docetaxel	–
CC(=O)O[C@@]12CO[C@@H]1C[C@H](O)[C@@]1(C)C(=O)[C@H](O)C3=C(C)[C@@H](OC(=O)[C@H](OC(=O)CCC(=O)NCCCCC(NC(=O)CC[C@H](NC(=O)C(C)NC(=O)/C=C/c4cccc(F)c4)C(N)=O)C(N)=O)[C@@H](NC(=O)OC(C)(C)C)c4ccccc4)C[C@@](O)([C@@H](OC(=O)c4ccccc4)[C@H]21)C3(C)C (some centres unmarked) [MDC-407]	in the same magnitude range as paclitaxel or docetaxel	–
CC(=O)O[C@@]12CO[C@@H]1C[C@H](O)[C@@]1(C)C(=O)[C@H](O)C3=C(C)[C@@H](OC(=O)[C@H](OC(=O)CCC(=O)NCCCCC(NC(=O)CC[C@H](NC(=O)C(C)NC(=O)/C=C/c4ccc(F)c(F)c4)C(N)=O)C(N)=O)[C@@H](NC(=O)OC(C)(C)C)c4ccccc4)C[C@@](O)([C@@H](OC(=O)c4ccccc4)[C@H]21)C3(C)C (some centres unmarked) [MDC-408]	in the same magnitude range as paclitaxel or docetaxel	–
CC(=O)O[C@H]1C(=O)[C@@]2(C)[C@H]([C@H](OC(=O)c3ccccc3)[C@]3(O)C[C@H](OC(=O)[C@H](OC(=O)CCC(=O)NCCCCC(NC(=O)CC[C@H](NC(=O)C(C)NC(=O)c4ccc5ccccc5n4)C(N)=O)C(N)=O)[C@@H](NC(=O)c4ccccc4)c4ccccc4)C(C)=C1C3(C)C)[C@]1(OC(C)=O)CO[C@@H]1C[C@@H]2O (some centres unmarked) [MTC-213]	–	50% growth inhibition (GI50) activity [2]: in the same magnitude range as paclitaxel
CC(=O)O[C@H]1C(=O)[C@@]2(C)[C@H]([C@H](OC(=O)c3ccccc3)[C@]3(O)C[C@H](OC(=O)[C@H](OC(=O)CCC(=O)NCCCCC(NC(=O)CC[C@H](NC(=O)C(C)NC(=O)/C=C/c4cccs4)C(N)=O)C(N)=O)[C@@H](NC(=O)c4ccccc4)c4ccccc4)C(C)=C1C3(C)C)[C@]1(OC(C)=O)CO[C@@H]1C[C@@H]2O (some centres unmarked) [MTC-219]	–	50% growth inhibition (GI50) activity [2]: in the same magnitude range as paclitaxel
CC(=O)O[C@H]1C(=O)[C@@]2(C)[C@H]([C@H](OC(=O)c3ccccc3)[C@]3(O)C[C@H](OC(=O)[C@H](OC(=O)CCC(=O)NCCCCC(NC(=O)CC[C@H](NC(=O)C(C)NC(=O)COc4cccc5ccccc45)C(N)=O)C(N)=O)[C@@H](NC(=O)c4ccccc4)c4ccccc4)C(C)=C1C3(C)C)[C@]1(OC(C)=O)CO[C@@H]1C[C@@H]2O (some centres unmarked) [MTC-233]	–	50% growth inhibition (GI50) activity [2]: in the same magnitude range as paclitaxel
CC(=O)O[C@H]1C(=O)[C@@]2(C)[C@H]([C@H](OC(=O)c3ccccc3)[C@]3(O)C[C@H](OC(=O)[C@H](OC(=O)CCC(=O)NCCCCC(NC(=O)CC[C@H](NC(=O)C(C)NC(=O)/C=C/c4ccc(O)cc4)C(N)=O)C(N)=O)[C@@H](NC(=O)c4ccccc4)c4ccccc4)C(C)=C1C3(C)C)[C@]1(OC(C)=O)CO[C@@H]1C[C@@H]2O (some centres unmarked) [MTC-301]	in the same magnitude range as paclitaxel or docetaxel	–
CC(=O)O[C@H]1C(=O)[C@@]2(C)[C@H]([C@H](OC(=O)c3ccccc3)[C@]3(O)C[C@H](OC(=O)[C@H](OC(=O)CCC(=O)NCCCCC(NC(=O)CC[C@H](NC(=O)C(C)NC(=O)/C=C/c4ccc(C)cc4)C(N)=O)C(N)=O)[C@@H](NC(=O)c4ccccc4)c4ccccc4)C(C)=C1C3(C)C)[C@]1(OC(C)=O)CO[C@@H]1C[C@@H]2O (some centres unmarked) [MTC-302]	in the same magnitude range as paclitaxel or docetaxel	50% growth inhibition (GI50) activity [2]: in the same magnitude range as paclitaxel
CC(=O)O[C@H]1C(=O)[C@@]2(C)[C@H]([C@H](OC(=O)c3ccccc3)[C@]3(O)C[C@H](OC(=O)[C@H](OC(=O)CCC(=O)NCCCCC(NC(=O)CC[C@H](NC(=O)C(C)NC(=O)/C=C/c4ccc(F)cc4F)C(N)=O)C(N)=O)[C@@H](NC(=O)c4ccccc4)c4ccccc4)C(C)=C1C3(C)C)[C@]1(OC(C)=O)CO[C@@H]1C[C@@H]2O (some centres unmarked) [MTC-303]	in the same magnitude range as paclitaxel or docetaxel	–
CC(=O)O[C@H]1C(=O)[C@@]2(C)[C@H]([C@H](OC(=O)c3ccccc3)[C@]3(O)C[C@H](OC(=O)[C@H](OC(=O)CCC(=O)NCCCCC(NC(=O)CC[C@H](NC(=O)C(C)NC(=O)/C=C/c4ccc(Cl)cc4F)C(N)=O)C(N)=O)[C@@H](NC(=O)c4ccccc4)c4ccccc4)C(C)=C1C3(C)C)[C@]1(OC(C)=O)CO[C@@H]1C[C@@H]2O (some centres unmarked) [MTC-304]	in the same magnitude range as paclitaxel or docetaxel	–
CC(=O)O[C@H]1C(=O)[C@@]2(C)[C@H]([C@H](OC(=O)c3ccccc3)[C@]3(O)C[C@H](OC(=O)[C@H](OC(=O)CCC(=O)NCCCCC(NC(=O)CC[C@H](NC(=O)C(C)NC(=O)/C=C/c4ccc(F)cc4Cl)C(N)=O)C(N)=O)[C@@H](NC(=O)c4ccccc4)c4ccccc4)C(C)=C1C3(C)C)[C@]1(OC(C)=O)CO[C@@H]1C[C@@H]2O (some centres unmarked) [MTC-305]	in the same magnitude range as paclitaxel or docetaxel	–
CC(=O)O[C@H]1C(=O)[C@@]2(C)[C@H]([C@H](OC(=O)c3ccccc3)[C@]3(O)C[C@H](OC(=O)[C@H](OC(=O)CCC(=O)NCCCCC(NC(=O)CC[C@H](NC(=O)C(C)NC(=O)/C=C/c4ccc(F)cc4)C(N)=O)C(N)=O)[C@@H](NC(=O)c4ccccc4)c4ccccc4)C(C)=C1C3(C)C)[C@]1(OC(C)=O)CO[C@@H]1C[C@@H]2O (some centres unmarked) [MTC-306]	in the same magnitude range as paclitaxel or docetaxel	–
CC(=O)O[C@H]1C(=O)[C@@]2(C)[C@H]([C@H](OC(=O)c3ccccc3)[C@]3(O)C[C@H](OC(=O)[C@H](OC(=O)CCC(=O)NCCCCC(NC(=O)CC[C@H](NC(=O)C(C)NC(=O)/C=C/c4cccc(F)c4)C(N)=O)C(N)=O)[C@@H](NC(=O)c4ccccc4)c4ccccc4)C(C)=C1C3(C)C)[C@]1(OC(C)=O)CO[C@@H]1C[C@@H]2O (some centres unmarked) [MTC-307]	in the same magnitude range as paclitaxel or docetaxel	–
CC(=O)O[C@H]1C(=O)[C@@]2(C)[C@H]([C@H](OC(=O)c3ccccc3)[C@]3(O)C[C@H](OC(=O)[C@H](OC(=O)CCC(=O)NCCCCC(NC(=O)CC[C@H](NC(=O)C(C)NC(=O)/C=C/c4ccc(F)c(F)c4)C(N)=O)C(N)=O)[C@@H](NC(=O)c4ccccc4)c4ccccc4)C(C)=C1C3(C)C)[C@]1(OC(C)=O)CO[C@@H]1C[C@@H]2O (some centres unmarked) [MTC-308]	in the same magnitude range as paclitaxel or docetaxel	–
